Data taken from patent US11464770B2, “Anticancer pharmaceutical composition” (NATIONAL CANCER CENTER, priority 2016, dated 2022).
Where two headings read alike, the source gives them in different places.

Assays:
[1] = test system: blood cancer cell lines (e.g. HL-60, Jurkat, Raji, Ramos, Daudi, MOLT-4); experiment: Cell based assay, cell viability (CellTiter-Glo), blood cancer cell lines; conditions: Homo sapiens
Experimental: (§1) Commercially available bladder cancer, prostate cancer, lung cancer, breast cancer, blood cancer, pancreatic cancer, colorectal cancer, brain cancer, neuroblastoma, melanoma, liver cancer, cervical carcinoma, ovarian cancer, renal cancer, and papilloma cell lines were each treated with trypsin-EDTA and cultured, followed by being seeded in each well of a 96 well plate. After 24 hours of treatment at constant temperature, the respective cells were treated with the candidate compound so that a final concentration became 0 to 2 μM. The treated cells were additionally cultured for 72 hours, and cell viability was measured by using an ATP detection method (CellTiter-Glo® Luminescent Cell Viability Assay, Promega).

[2] = test system: pancreatic cancer cell lines (e.g. MIA PaCa-2); experiment: Cell based assay, cell viability (CellTiter-Glo), pancreatic cancer cell lines; conditions: Homo sapiens
Experimental: as §1

neuroblastoma cell lines = experiment: Cell based assay, cell viability (CellTiter-Glo), neuroblastoma cell lines; conditions: Homo sapiens; SH-SY5Y cell line
Experimental: as §1

renal cancer cell lines = experiment: Cell based assay, cell viability (CellTiter-Glo), renal cancer cell lines; conditions: Homo sapiens; ACHN cells
Experimental: as §1

[3] = MV4-11, blood cancer cell line MV-4-11, 72 hours, read-out: IC50, MV-4-11
[4] = blood cancer cell line Daudi, 72 hours, read-out: IC50, Daudi
[5] = blood cancer cell line HL-60, 72 hours, read-out: IC50, HL-60
[6] = blood cancer cell line Jurkat, 72 hours, read-out: IC50, Jurkat
[7] = blood cancer cell line MOLT-4, 72 hours, read-out: IC50, MOLT-4
[8] = blood cancer cell line Raji, 72 hours, read-out: IC50, Raji
[9] = blood cancer cell line Ramos (RA 1), 72 hours, read-out: IC50, Ramos (RA 1)
[10] = blood cancer cell line U-937, 72 hours, read-out: IC50, U-937
[11] = pancreatic cancer cell line AsPC-1, 72 hours, read-out: IC50, AsPC-1
[12] = pancreatic cancer cell line BxPC-3, 72 hours, read-out: IC50, BxPC-3
[13] = pancreatic cancer cell line CFPAC-1, 72 hours, read-out: IC50, CFPAC-1
[14] = pancreatic cancer cell line Capan-1, 72 hours, read-out: IC50, Capan-1
[15] = pancreatic cancer cell line Capan-2, 72 hours, read-out: IC50, Capan-2
[16] = pancreatic cancer cell line MIA PaCa-2, 72 hours, read-out: IC50, MIA PaCa-2
[17] = pancreatic cancer cell line PANC-1, 72 hours, read-out: IC50, PANC-1

| Compound | IC50 [1, 3] | IC50 [1, 4] | IC50 [1, 5] | IC50 [1, 6] | IC50 [1, 7] | IC50 [1, 8] | IC50 [1, 9] | IC50 [1, 10] | IC50 [2, 11] | IC50 [2, 12] | IC50 [2, 13] | IC50 [2, 14] | IC50 [2, 15] | IC50 [2, 16] | IC50 [2, 17] | IC50 (neuroblastoma cell lines) | IC50 (renal cancer cell lines) |
| --- | --- | --- | --- | --- | --- | --- | --- | --- | --- | --- | --- | --- | --- | --- | --- | --- | --- |
| CC(=O)c1c(S(=O)(=O)Cc2ccccc2)nc2c(Br)ccc(Cl)c2c1O [Compound 54, 1-(2-(benzylsulfonyl)-8-bromo-5-chloro-4-hydroxyquinolin-3-yl)ethan-1-one] | > 2000 nM | > 2000 nM | > 2000 nM | > 2000 nM | > 2000 nM | > 2000 nM | > 2000 nM | > 2000 nM | > 2000 nM | > 2000 nM | > 10000 nM | > 2000 nM | > 2000 nM | > 2000 nM | > 2000 nM | > 2000 nM | > 2000 nM |
| COc1cccc2[nH]c(SCc3ccc(S(F)(F)(F)(F)F)cc3)c(C(C)=O)c(=O)c12 [Compound 92, 3-acetyl-5-methoxy-2-((4-(pentafluoro--sulfanyl)benzyl)thio)quinolin-4(1H)-one] | > 2000 nM | > 2000 nM | > 2000 nM | > 2000 nM | > 2000 nM | > 2000 nM | > 2000 nM | > 2000 nM | > 2000 nM | > 2000 nM | > 10000 nM | > 2000 nM | > 2000 nM | > 2000 nM | > 2000 nM | > 2000 nM | > 2000 nM |
| CC(=O)c1c([S+]([O-])C(C)C)[nH]c2c(Br)ccc(Cl)c2c1=O (stereo not drawn) [Compound 25, 3-acetyl-8-bromo-5-chloro-2-(isopropylsulfinyl)quinolin-4(1H)-one] | > 2000 nM | > 2000 nM | > 2000 nM | > 2000 nM | > 2000 nM | > 2000 nM | > 2000 nM | > 2000 nM | > 2000 nM | > 2000 nM | > 10000 nM | > 2000 nM | > 2000 nM | > 2000 nM | > 2000 nM | > 2000 nM | > 2000 nM |
| COc1ccccc1Sc1[nH]c2c(Br)ccc(Cl)c2c(=O)c1C(C)=O [Compound 14, 3-acetyl-8-bromo-5-chloro-2-((2-methoxyphenyl)thio)quinolin-4(1H)-one] | > 2000 nM | > 2000 nM | > 2000 nM | > 2000 nM | > 2000 nM | > 2000 nM | > 2000 nM | > 2000 nM | > 2000 nM | > 2000 nM | > 10000 nM | > 2000 nM | > 2000 nM | > 2000 nM | > 2000 nM | > 2000 nM | > 2000 nM |
| CC(=O)c1c([S+]([O-])Cc2ccc(C#N)s2)[nH]c2c(Br)ccc(Cl)c2c1=O (stereo not drawn) [Compound 98, 5-(((3-acetyl-8-bromo-5-chloro-4-oxo-1,4-dihydroquinolin-2-yl)sulfinyl)methyl)thiophene-2-carbonitrile] | 1240 nM | 1470 nM | > 2000 nM | 730 nM | > 2000 nM | > 2000 nM | 1230 nM | > 2000 nM | > 2000 nM | > 2000 nM | > 10000 nM | > 2000 nM | > 2000 nM | 1270 nM | > 2000 nM | 830 nM | 1810 nM |
| CC(=O)c1c(S/C=C\C(=O)O)[nH]c2c(Br)ccc(Cl)c2c1=O [Compound 67, (Z)-3-((3-acetyl-8-bromo-5-chloro-4-oxo-1,4-dihydroquinolin-2-yl)thio)acrylic acid] | > 2000 nM | > 2000 nM | > 2000 nM | > 2000 nM | > 2000 nM | > 2000 nM | > 2000 nM | > 2000 nM | > 2000 nM | > 2000 nM | > 10000 nM | > 2000 nM | > 2000 nM | > 2000 nM | > 2000 nM | > 2000 nM | > 2000 nM |
| CC(=O)c1c(SCc2cccc(C#N)c2)[nH]c2c(Br)ccc(Cl)c2c1=O [Compound 27, 3-(((3-acetyl-8-bromo-5-chloro-4-oxo-1,4-dihydroquinolin-2-yl)thio)methyl)benzonitrile] | > 2000 nM | > 2000 nM | > 2000 nM | > 2000 nM | > 2000 nM | > 2000 nM | > 2000 nM | > 2000 nM | > 2000 nM | > 2000 nM | > 10000 nM | > 2000 nM | > 2000 nM | > 2000 nM | > 2000 nM | > 2000 nM | > 2000 nM |
| CC(=O)c1c([S+](C)[O-])n(C(=O)c2ccc(Br)cc2)c2c(Br)ccc(Cl)c2c1=O (stereo not drawn) [Compound 9, 3-acetyl-8-bromo-1-(4-bromobenzoyl)-5-chloro-2-(methylsulfinyl)quinolin-4(1H)-one] | 1090 nM | 1990 nM | 1200 nM | 1050 nM | 1250 nM | 1140 nM | 1550 nM | 1060 nM | > 2000 nM | > 2000 nM | > 10000 nM | > 2000 nM | > 2000 nM | 1030 nM | > 2000 nM | > 2000 nM | > 2000 nM |
| CC(=O)c1c([S+]([O-])Cc2ccc(SC(F)(F)F)cc2)[nH]c2c(Cl)ccc(Cl)c2c1=O (stereo not drawn) [Compound 79, 3-acetyl-5,8-dichloro-2-((4-((trifluoromethyl)thio)benzyl)sulfinyl)quinolin-4(1H)-one] | > 2000 nM | > 2000 nM | > 2000 nM | > 2000 nM | > 2000 nM | > 2000 nM | > 2000 nM | > 2000 nM | > 2000 nM | > 2000 nM | > 10000 nM | > 2000 nM | > 2000 nM | > 2000 nM | > 2000 nM | > 2000 nM | > 2000 nM |
